Results from US12390470B2, “1-methylxanthine-based bioactive composition and method of use thereof” (Ingenious Ingredients, LP, priority 2021, dated 2025).

Tests used:
male Swiss Albino mice [1] = experiment: Cook's pole climbing test, scopolamine-induced amnesia; type: in vivo
Protocol: (§1) Behavioral studies were conducted in mice to examine the learning and memory ability by using Cook's pole and Passive shock avoidance test.
(§2) Twenty-four 8-week-old male Swiss Albino mice were housed in an animal room at a constant temperature (22±3° C.) and humidity (30%-70%) under a 12:12 h light-dark cycle with standard laboratory diet (Purina 5L79, Rat and Mouse 18% protein; PMI Nutrition International, Brentwood, MO, USA). Distilled water was provided ad libitum. All animal experiments were reviewed and approved by the Institutional Animal Ethical Committee (IAEC) of Radiant Research Services Pvt. Ltd (Bangalore, India). All research was conducted in accordance with the guidelines of the committee for the purpose of control and supervision of experiments on animals.
After one week of acclimation, the animals were randomly divided by body weight into three groups (n=8 per group in each test) for oral treatment once a day, at approximately same time each day (±1 hour), for 7 consecutive days: (1) vehicle control or (2) 1-methylxanthine or (3) 1-methylxanthine plus paraxanthine. The dose administered to the mice was calculated using US Food and Drug Administration for human equivalence doses (HED), assuming a human weight of 60 kg. The following HED was used in this study: 100 mg 1-methylxanthine (Ingenious Ingredients, L.P Lewisville, TX, USA; mouse dose: 20.5 mg/kg bw/day), or 100 mg 1-methylxanthine (Ingenious Ingredients, L.P Lewisville, TX, USA; mouse dose: 20.5 mg/kg bw/day) plus 100 mg paraxanthine (ENFINITY™, Ingenious Ingredients, L.P Lewisville, TX, USA; mouse dose: 20.5 mg/kg bw/day). 0.5% Carboxy Methyl Cellulose sodium was used as vehicle and the test item formulations were prepared daily. […] Food intake was monitored daily while water intake was ad libitum.
Mice were trained in such a way that the animal had to climb the pole (shock free zone) within 30 seconds to avoid a shock. […] At particular intervals, 20 trials were given for each animal and average of the shock avoidance and mistakes were recorded. […]

male Swiss Albino mice [2] = experiment: Passive shock avoidance test, scopolamine-induced amnesia; type: in vivo
Protocol: as §1, §2
After one week of acclimation, the animals were randomly divided by body weight into three groups (n=8 per group in each test) for oral treatment once a day, at approximately same time each day (±1 hour), for 7 consecutive days: (1) vehicle control or (2) 1-methylxanthine or (3) 1-methylxanthine plus paraxanthine. The dose administered to the mice was calculated using US Food and Drug Administration for human equivalence doses (HED), assuming a human weight of 60 kg. […] Food intake was monitored daily while water intake was ad libitum. […]

[3] = Brain weight in young and aged rats; type: in vivo
Protocol: as §2, with “young (6-8 Week) and twenty-four old (14-16 Months)” for “8-week-old male”, “Wistar rats” for “mice”
After one week of acclimation, the animals were randomly divided by body weight and age into six groups (n=8 per group in each test) for oral treatment once a day, at approximately same time each day (±1 hour), for 10 consecutive days: (1) vehicle control or (2) 1-methylxanthine or (3) 1-methylxanthine plus paraxanthine. The dose administered to the rat was calculated using US Food and Drug Administration for human equivalence doses (HED), assuming a human weight of 60 kg. […] Food intake was monitored daily while water intake was ad libitum. […] Body weight was recorded weekly. […]

healthy adult male = experiment: Subject report during work out; type: in vivo, human; conditions: 200 mg prior to work out
Protocol: Subject was a healthy adult. Subject was administered 200 mg of 1-methylxanthine prior to work out.
During another trial subject was administered 100 mg of 1-methylxanthine together with 100 mg of paraxanthine, prior to work out.

Cn1c(=O)[nH]c2nc[nH]c2c1=O [1-methylxanthine, 1-Methyl-3H-purine-2,6-dione]
Escape latency faster than control (male Swiss Albino mice [1]; Cook's pole): 14.9% | Escape latency, Cook's pole climbing test (male Swiss Albino mice [1]; mice, oral 7 days, scopolamine): 10.13 ± 0.83 s | Overall outcome on amnesia, memory and learning (male Swiss Albino mice [1]; summary of Cook's pole and passive shock avoidance tests): showed reversal of amnesia induced by scopolamine and improved memory and learning | Transfer latency, passive shock avoidance test (male Swiss Albino mice [2]; mice, oral 7 days, scopolamine): 24.25 ± 2.60 s | Transfer latency faster than control (male Swiss Albino mice [2]; mouse, in vivo): 9.3% | Brain weight ([3]; aged animals): 2 ± 0.074 g | Brain weight ([3]; young animals): 1.73 ± 0.027 g | subject-reported effect during work out (healthy adult male): increased focus, concentration, mood and performance
